Like-named read-outs stand apart in the source and are kept apart here. Non-standard residues stand in square brackets, D forms with d. Residues, ends and D or L forms follow the SMILES beside them. *: point of attachment. pY = N[C@@H](Cc1ccc(OP(=O)(O)O)cc1)C(=O)O; Caffeoyl = O=C(/C=C/c1ccc(O)c(O)c1)*
Experiments:
Assay in all cases: biochemical
Assay type in all cases: binding
GRB10 = molecular target: T1, GRB10 (Homo sapiens, UniProt Q13322); settings: for remaining activity at 10 µM / percent of DMSO vehicle control at 10 µM: read-out: percent of DMSO vehicle control
T1 construct: the DNA-tagged SH2 domain concentrations used in this study were <0.1 nM; made in house; host or cells: HEK293 (transient transfection; unpurified extract)
T1 sequence (Q13322 493-574 limits assumed): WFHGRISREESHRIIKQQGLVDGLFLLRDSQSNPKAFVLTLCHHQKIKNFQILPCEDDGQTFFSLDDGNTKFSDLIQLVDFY

LCK = molecular target: T2, LCK (Homo sapiens, UniProt P06239); settings: for remaining activity at 10 µM / percent of DMSO vehicle control at 10 µM: read-out: percent of DMSO vehicle control
T2 construct: the DNA-tagged SH2 domain concentrations used in this study were <0.1 nM; made in house; host or cells: HEK293 (transient transfection, unpurified extract)
T2 sequence (P06239 127-224 limits assumed): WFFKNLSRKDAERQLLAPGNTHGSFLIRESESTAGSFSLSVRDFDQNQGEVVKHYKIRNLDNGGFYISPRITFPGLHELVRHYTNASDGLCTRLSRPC

PLCG1(SH2dom.C-term.) = molecular target: T3, PLCG1(SH2dom.C-term.) (Homo sapiens, UniProt P19174); settings: for remaining activity at 10 µM: read-out: percent of DMSO vehicle control
T3 construct: SH2dom.C-term. denotes SH2 domain closest to C-terminus of protein; made in house; host or cells: HEK293 (transient transfection, unpurified extract)
T3 sequence (P19174 668-756 limits assumed): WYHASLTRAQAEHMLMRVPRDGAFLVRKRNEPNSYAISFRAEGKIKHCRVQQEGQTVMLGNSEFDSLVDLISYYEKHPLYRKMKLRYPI

SHC3 = molecular target: T4, SHC3 (Homo sapiens, UniProt Q92529); settings: for remaining activity at 10 µM: read-out: percent of DMSO vehicle control
T4 construct: made in house; host or cells: HEK293 (transient transfection), unpurified extract
T4 sequence (Q92529 1-594): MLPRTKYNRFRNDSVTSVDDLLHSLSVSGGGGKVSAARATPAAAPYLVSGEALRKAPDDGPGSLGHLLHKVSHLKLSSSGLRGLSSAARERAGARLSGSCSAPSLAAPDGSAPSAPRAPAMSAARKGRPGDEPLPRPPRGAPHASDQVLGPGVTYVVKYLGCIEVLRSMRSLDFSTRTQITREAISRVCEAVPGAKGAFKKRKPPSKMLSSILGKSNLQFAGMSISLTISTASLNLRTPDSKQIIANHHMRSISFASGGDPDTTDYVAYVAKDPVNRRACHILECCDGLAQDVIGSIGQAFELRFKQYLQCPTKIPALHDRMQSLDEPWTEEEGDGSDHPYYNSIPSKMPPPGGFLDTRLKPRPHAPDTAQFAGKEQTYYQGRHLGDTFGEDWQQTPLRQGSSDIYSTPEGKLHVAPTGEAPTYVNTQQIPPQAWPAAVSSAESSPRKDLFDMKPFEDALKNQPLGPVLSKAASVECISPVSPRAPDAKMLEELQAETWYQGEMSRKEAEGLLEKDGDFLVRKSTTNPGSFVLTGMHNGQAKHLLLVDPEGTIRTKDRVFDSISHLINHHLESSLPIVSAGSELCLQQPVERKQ

SOCS1 = molecular target: T5, SOCS1 (Homo sapiens, UniProt O15524); settings: for remaining activity at 10 µM: read-out: percent of DMSO vehicle control
T5 construct: made in house; host or cells: HEK293 (transient transfection), unpurified extract
T5 sequence (O15524 1-211): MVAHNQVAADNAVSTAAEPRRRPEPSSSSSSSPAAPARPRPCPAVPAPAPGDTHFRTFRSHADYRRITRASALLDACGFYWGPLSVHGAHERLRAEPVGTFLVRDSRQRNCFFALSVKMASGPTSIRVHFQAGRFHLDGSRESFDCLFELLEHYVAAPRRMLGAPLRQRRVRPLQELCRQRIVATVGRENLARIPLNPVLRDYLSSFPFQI

TNS3 = molecular target: T6, TNS3 (Homo sapiens, UniProt Q68CZ2); settings: for remaining activity at 10 µM: read-out: percent of DMSO vehicle control
T6 construct: made in house; host or cells: HEK293 (transient transfection), unpurified extract
T6 sequence (Q68CZ2 1-1445): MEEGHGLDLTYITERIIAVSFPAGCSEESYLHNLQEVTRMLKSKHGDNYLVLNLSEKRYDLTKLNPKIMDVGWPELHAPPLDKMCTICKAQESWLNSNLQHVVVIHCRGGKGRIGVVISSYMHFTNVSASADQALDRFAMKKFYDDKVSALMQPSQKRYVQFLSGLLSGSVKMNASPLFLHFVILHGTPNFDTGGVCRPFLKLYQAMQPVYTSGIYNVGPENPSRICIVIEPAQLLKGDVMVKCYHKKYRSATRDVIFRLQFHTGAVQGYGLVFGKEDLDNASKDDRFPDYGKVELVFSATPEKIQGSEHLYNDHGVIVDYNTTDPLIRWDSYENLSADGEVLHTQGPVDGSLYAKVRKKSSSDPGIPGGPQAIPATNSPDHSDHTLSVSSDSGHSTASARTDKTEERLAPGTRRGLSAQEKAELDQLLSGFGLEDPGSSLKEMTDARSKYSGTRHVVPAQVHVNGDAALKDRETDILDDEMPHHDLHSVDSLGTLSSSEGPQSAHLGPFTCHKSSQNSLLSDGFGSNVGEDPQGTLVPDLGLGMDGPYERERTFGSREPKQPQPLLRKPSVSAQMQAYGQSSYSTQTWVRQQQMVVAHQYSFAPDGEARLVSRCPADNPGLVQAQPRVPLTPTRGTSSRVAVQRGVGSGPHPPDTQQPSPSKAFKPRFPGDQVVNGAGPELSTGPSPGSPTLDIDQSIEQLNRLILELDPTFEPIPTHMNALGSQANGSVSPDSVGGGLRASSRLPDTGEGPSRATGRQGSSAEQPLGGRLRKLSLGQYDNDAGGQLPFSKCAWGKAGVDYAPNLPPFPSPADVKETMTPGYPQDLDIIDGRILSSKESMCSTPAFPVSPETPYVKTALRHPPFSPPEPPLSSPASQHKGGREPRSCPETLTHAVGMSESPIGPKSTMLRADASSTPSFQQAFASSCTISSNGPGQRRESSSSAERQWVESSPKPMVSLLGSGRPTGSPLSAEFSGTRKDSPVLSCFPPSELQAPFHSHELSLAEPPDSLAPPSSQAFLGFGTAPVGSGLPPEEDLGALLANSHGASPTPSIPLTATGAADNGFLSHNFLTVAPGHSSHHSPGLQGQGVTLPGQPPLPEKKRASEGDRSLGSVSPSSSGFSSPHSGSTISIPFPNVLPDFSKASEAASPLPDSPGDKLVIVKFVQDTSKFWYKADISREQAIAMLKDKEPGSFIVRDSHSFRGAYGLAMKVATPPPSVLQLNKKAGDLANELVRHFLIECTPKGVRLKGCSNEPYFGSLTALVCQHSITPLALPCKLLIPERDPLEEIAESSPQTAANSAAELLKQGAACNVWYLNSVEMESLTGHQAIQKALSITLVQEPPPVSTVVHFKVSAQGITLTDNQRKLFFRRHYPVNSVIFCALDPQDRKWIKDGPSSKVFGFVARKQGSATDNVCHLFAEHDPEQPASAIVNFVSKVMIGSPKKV

SMILES | remaining activity at 10 µM (GRB10; primary screen, 10 μM) [%] | remaining activity at 10 µM (LCK; primary screen, 10 μM) [%] | remaining activity at 10 µM (PLCG1(SH2dom.C-term.); primary screen, 10 μM) [%] | remaining activity at 10 µM (SHC3; primary screen, 10 μM) [%] | remaining activity at 10 µM (SOCS1; primary screen, 10 μM) [%] | remaining activity at 10 µM (TNS3; primary screen, 10 μM) [%] | percent of DMSO vehicle control at 10 µM (GRB10) [%] | percent of DMSO vehicle control at 10 µM (LCK) [%] | remaining activity at 10 µM (PLCG1(SH2dom.C-term.)) [%] | remaining activity at 10 µM (SHC3) [%] | remaining activity at 10 µM (SOCS1) [%] | Kd (TNS3) [nM] | remaining activity at 10 µM (TNS3) [%] | other results
O=C(CCl)Nc1cccc(CNC(=O)[C@H](Cc2ccc(OP(=O)(O)O)cc2)NC(=O)Cc2ccc(F)cc2)c1 [MN551] | 61.8 | 98.7 ± 0.5 | 64.1 ± 4.5 | 91.2 ± 1.9 | 38.1 ± 7.5 | 48.5 ± 7.3 |  |  |  |  |  |  |  | 
CC[C@H](C)[C@H](NC(=O)[C@H](CCC(=O)O)NC(=O)[C@H](CCC(=O)O)NC(=O)[C@H](Cc1ccc(OP(=O)(O)O)cc1)NC(=O)/C=C/c1ccc(O)c(O)c1)C(=O)N[C@@H](CCC(=O)O)C(=O)O [Caffeic acid-pYEEIE] (Caffeoyl-[pY]EEIE-OH) |  |  |  |  |  |  | 0.7 ± 0.9 | 0 | 0 | 0 | 1.1 ± 0.1 | 1000 ± 210 | 1.8 ± 0.6 | Kd (GRB10): 480 ± 79 nM; Kd (LCK): 3.7 ± 0.62 nM; Kd (PLCG1(SH2dom.C-term.)): 14 ± 11 nM; Kd (SHC3): 130 ± 120 nM; Kd (SOCS1): 30 ± 6.5 nM
C/C(=C\C(=O)N[C@H](C(=O)N1CCC[C@H]1C(=O)N(c1ccccc1)c1ccc(I)cc1)C(C)(C)C)c1ccc(OP(=O)(O)O)cc1 [STAT6-IN-1] | 14.6 ± 11 | 48.3 ± 1.3 | 1.5 ± 2.1 | 35.3 ± 4.8 | 98.5 ± 3.5 | 57 ± 10.1 |  |  |  |  |  |  |  | KD (GRB10; dose-response): No Hit; Kd (PLCG1(SH2dom.C-term.); dose-response, read-out: KD): 2050 ± 210 nM; Kd (SHC3; dose-response, read-out: KD): 3600 ± 570 nM
O=C(COc1ccc2cc(C(=O)Nc3ccccc3)ccc2c1)NCc1ccc(OP(=O)(O)O)c(OP(=O)(O)O)c1 [Stafib-1] | 78.1 ± 12.9 | 97.4 ± 7.6 | 78.8 ± 17.8 | 87 ± 14.4 | 156 | 77.8 ± 9 |  |  |  |  |  |  |  | 
CC[C@H](C)[C@H](NC(=O)[C@H](CO)NC(=O)[C@H](CC(C)C)NC(=O)[C@H](CCCNC(=N)N)NC(=O)[C@H](CO)NC(=O)[C@H](CS)NC(C)=O)C(=O)N[C@@H](Cc1ccc(OP(=O)(O)O)cc1)C(=O)N[C@@H](CC(=O)O)C(=O)N[C@@H](CC(N)=O)C(=O)N[C@H](C(=O)N1CCC[C@H]1C(=O)NCC(N)=O)C(C)C [Ac-CSRLSIpYDNVPG-NH2] (Ac-CSRLSI[pY]DNVPG-NH2) |  |  |  |  |  |  |  |  |  |  |  | 120 ± 28.9 |  | 
CC[C@H](C)[C@H](NC(=O)[C@H](CCC(=O)O)NC(=O)[C@H](CCC(=O)O)NC(=O)[C@H](Cc1ccc(OP(=O)(O)O)cc1)NC(C)=O)C(=O)N[C@@H](CCC(=O)O)C(N)=O [Ac-pYEEIE-NH2] (Ac-[pY]EEIE-NH2) |  |  |  |  |  |  |  |  |  |  |  |  |  | percent of DMSO vehicle control (GRB10; primary screen, 10 μM): 155.2%; percent of DMSO vehicle control (LCK; primary screen, 10 μM): 44.2±3.3%; percent of DMSO vehicle control (PLCG1(SH2dom.C-term.); primary screen, 10 μM): 37.9±3.6%; percent of DMSO vehicle control (SHC3; primary screen, 10 μM): 98.9±6.8%; percent of DMSO vehicle control (SOCS1; primary screen, 10 μM): 128.1%; percent of DMSO vehicle control (TNS3; primary screen, 10 μM): 83.2±4.0%
NC(=O)CC[C@H](NC(=O)[C@@H]1CC[C@@H]2CCN(C(=O)CCCCCC#Cc3cccc4c3CN(C3CCC(=O)NC3=O)C4=O)C[C@H](NC(=O)c3cc4cc(C(F)(F)P(=O)(O)O)ccc4[nH]3)C(=O)N21)C(=O)NC(c1ccccc1)c1ccccc1 (stereo partly shown) [SD-36] |  |  |  |  |  |  | 111 ± 9.2 | 97.3 ± 3.9 | 85.7 ± 0.8 | 74.5 ± 0.8 | 132 ± 8.8 |  | 57.6 ± 6 | 
CC(C)(C)[C@H](NC(=O)/C=C/c1ccc(OP(=O)(O)O)cc1)C(=O)N1CCC[C@H]1C(=O)N(c1ccccc1)c1ccc(I)cc1 [STAT6-IN-3] | 58.8 ± 17.6 | 72 ± 20.4 | 24.7 ± 7 | 50.6 ± 6.4 | 95.9 ± 35.6 | 55.6 ± 12.1 |  |  |  |  |  |  |  | Kd (PLCG1(SH2dom.C-term.); dose-response, read-out: KD): 3800 ± 280 nM
CC(=O)N[C@@H](Cc1ccc(CP(=O)(O)O)cc1)C(=O)NC1(C(=O)N[C@@H](CC(N)=O)C(=O)NCCCc2c(O)ccc3ccccc23)CCCCC1 [CGP78850] |  |  |  |  |  |  | 88.5 ± 13.4 | 46 ± 3.7 | 96.8 ± 4.1 | 29.2 ± 2.8 | 129 ± 11.7 | 620 | 9.8 ± 0.1 | Kd (SHC3): 1800 ± 240 nM
CC(=O)N1CC[C@H]2CC[C@@H](C(=O)N[C@@H](CCC(N)=O)C(=O)NC(c3ccccc3)c3ccccc3)N2C(=O)[C@@H](NC(=O)c2cc3cc(C(F)(F)P(=O)(O)O)ccc3[nH]2)C1 [SI-109] |  |  |  |  |  |  | 122 | 127 | 98 ± 1.4 | 122 | 103 |  | 128 | 

From article PMC12951562, “SH2scan: Mapping SH2 Domain-Ligand Binding Selectivity for Inhibitors and Degraders” (Journal of Medicinal Chemistry, 2026)
